Experimental data taken from PMC5443859, “EGFR-targeting peptide-coupled platinum(IV) complexes” (Journal of Biological Inorganic Chemistry, 2017).

Legend:
H520 cells = assay: cells; details: Homo sapiens, NCI-H520, 72 h, read-out: IC50 ± SD
Experimental: (§1) The following human cell models were used in this study: the renal cell carcinomas RUMH, the squamous cell carcinoma H520, the epidermoid carcinoma A431, as well as the non-small-cell lung cancer (NSCLC) line HCC827 (sources and used medium are summarized in (Table 2). Unless otherwise indicated, the cells were cultivated in humidified incubators (37 °C, 21% O2, 5% CO2) in full culture medium, containing 10% fetal calf serum (PAA, Linz, Austria). Cell cultures were periodically checked for Mycoplasma contamination.
(§2) Subsequently, the dissolved drugs were added. […] Cytotoxicity was expressed as IC50 values calculated from full dose–response curves using GraphPad Prism software. […] Then, the cells were exposed to the indicated drugs (25 or 50 µM) for 14 days. After washing with phosphate-buffered saline (PBS), the cells were fixed with methanol (−20 °C, 20 min) and after another washing step stained with crystal violet (1 h). […] The sum of fluorescence intensities per well was measured with ImageJ and, after blank subtraction, normalized to the untreated cells.

RUMH cells = assay: cells; assay type: cell-based; details: Homo sapiens, EGFR/wt overexpression, 72 h treatment, MTT assay
Experimental: as §1, §2

A431 cells = assay: Long-term clonogenic assay, 14 days; assay type: cell-based, human; details: 25 and 50 µM, crystal violet, three experiments in duplicates, result in words
Experimental: Subsequently, the dissolved drugs were added.

| SMILES | IC50 (H520 cells) [µM] | IC50 (RUMH cells) [µM] | long-term treatment effect, normalized to untreated cells (A431 cells) |
| --- | --- | --- | --- |
| C#Cc1cccc(Nc2ncnc3cc(OCCOC)c(OCCOC)cc23)c1 [Erlotinib, erlotinib] | > 25 | 23 ± 2.6 |  |
| O=C1[O][Pt]2([NH][C@@H]3CCCC[C@H]3[NH]2)[O]C1=O [oxaliplatin] |  |  | too low to be seen in this graph |
